What was measured:
[1] = test system: HeLa-MaTu-ADR, multidrug-resistant human cervical carcinoma cells; assay: Proliferation assay, HeLa-MaTu-ADR cells (crystal violet); format: cell-based; details: read-out: IC50 determined in a HeLa-MaTu-ADR cell proliferation assay
Experimental: (§1) Cultivated tumor cells (MCF7, hormone dependent human mammary carcinoma cells, ATCC HTB22; NCI-H460, human non-small cell lung carcinoma cells, ATCC HTB-177; DU 145, hormone-independent human prostate carcinoma cells, ATCC HTB-81; HeLa-MaTu, human cervical carcinoma cells, EPO-GmbH, Berlin; HeLa-MaTu-ADR, multidrug-resistant human cervical carcinoma cells, EPO-GmbH, Berlin; HeLa human cervical tumor cells, ATCC CCL-2; B16F10 mouse melanoma cells, ATCC CRL-6475) were plated at a density of 5000 cells/well (MCF7, DU145, HeLa-MaTu-ADR), 3000 cells/well (NCI-H460, HeLa-MaTu, HeLa), or 1000 cells/well (B16F10) in a 96-well multititer plate in 200 μl of their respective growth medium supplemented 10% fetal calf serum. After 24 hours, the cells of one plate (zero-point plate) were stained with crystal violet (see below), while the medium of the other plates was replaced by fresh culture medium (200 μl), to which the test substances were added in various concentrations (0 μM, as well as in the range of 0.01-30 μM; the final concentration of the solvent dimethyl sulfoxide was 0.5%). The cells were incubated for 4 days in the presence of test substances. Cell proliferation was determined by staining the cells with crystal violet: the cells were fixed by adding 20 μl/measuring point of an 11% glutaric aldehyde solution for 15 minutes at room temperature. After three washing cycles of the fixed cells with water, the plates were dried at room temperature. The cells were stained by adding 100 μl/measuring point of a 0.1% crystal violet solution (pH 3.0). After three washing cycles of the stained cells with water, the plates were dried at room temperature. The dye was dissolved by adding 100 μl/measuring point of a 10% acetic acid solution. The extinction was determined by photometry at a wavelength of 595 nm. The change of cell number, in percent, was calculated by normalization of the measured values to the extinction values of the zero-point plate (=0%) and the extinction of the untreated (0 μm) cells (=100%). The IC50 values were determined by means of a 4 parameter fit.

[2] = Metabolic stability in vitro, rat liver microsomes (calculation of Fmax); format: in vitro ADME
Experimental: (§2) The metabolic stability of test compounds in vitro was determined by incubating them at 1 μM with a suspension liver microsomes in 100 mM phosphate buffer, pH7.4 (NaH2PO4×H2O+Na2HPO4×2H2O) at a protein concentration of 0.5 mg/mL and at 37° C. The reaction was activated by adding a co-factor mix containing 1.2 mg NADP, 3 IU glucose-6-phosphate dehydrogenase, 14.6 mg glucose-6-phosphate and 4.9 mg MgCl2 in phosphate buffer, pH 7.4. Organic solvent in the incubations was limited to <0.2% dimethylsulfoxide (DMSO) and <1% methanol. During incubation, the microsomal suspensions were continuously shaken and aliquots were taken at 2, 8, 16, 30, 45 and 60 min, to which equal volumes of cold methanol were immediately added. Samples were frozen at −20° C. over night, subsequently centrifuged for 15 minutes at 3000 rpm and the supernatant was analyzed with an Agilent 1200 HPLC-system with LCMS/MS detection.
(§3) The half-life of a test compound was determined from the concentration-time plot. From the half-life the intrinsic clearances were calculated. Together with the additional parameters liver blood flow, specific liver weight and microsomal protein content the hepatic in vivo blood clearance (CL) and the maximal oral bioavailability (Fmax) were calculated for the different species. The following parameter values were used: Liver blood flow—1.3 L/h/kg (human), 2.1 L/h/kg (dog), 4.2 L/h/kg (rat); specific liver weight—21 g/kg (human), 39 g/kg (dog), 32 g/kg (rat); microsomal protein content—40 mg/g.
(§4) With the described assay only phase-I metabolism of microsomes is reflected, e.g. typically oxidoreductive reactions by cytochrome P450 enzymes and flavin mono-oxygenases (FMO) and hydrolytic reactions by esterases (esters and amides).

[3] = Metabolic stability in vitro, human liver microsomes (calculation of Fmax); format: in vitro ADME
Experimental: as §2, §3, §4

[4] = Metabolic stability in vitro, dog liver microsomes (calculation of Fmax); format: in vitro ADME
Experimental: as §2, §3, §4

[5] = Stability in buffer at pH 7.4 (HPLC); format: physicochemical; details: buffer pH 7.4, 37° C.
Experimental: 0.3 mg of the test compound are solved in 0.1 ml dimethylsulfoxide and 0.4 ml acetonitrile. For complete dissolution the HPLC vial with the sample solution is sonified for about 20 seconds. Then 1.0 ml of the buffer solution is added, and the sample is again treated in the ultrasonic bath.
90 g of sodium chloride, 13.61 g of potassium dihydrogen phosphate and 83.35 g of 1 M sodium hydroxide solution are made up to 1 liter with Millipore water and then diluted 1:10.
10 μl portions of the sample solution are analysed by HPLC to determine the amount of the test compound over a period of 24 hours at 37° C. The peak areas in percentage are used for quantification.
Agilent 1100 with DAD (G1315B), binary pump (G1312A), autosampler (G1329A), column oven (G1316A), thermostat (G1330B); column: Kromasil 100 C18, 250 mm×4 mm, 5 μm; column temperature: 37° C.; eluent A: water+5 ml of perchloric acid/liter, eluent B: acetonitrile.
The ratio of the peak areas (F) at different time points in relation to the peak areas at the starting time are shown in Table 2 for representative examples: […]

[6] = In vitro stability in rat plasma (HPLC detection); format: in vitro ADME; details: 37° C.
Experimental: 1 mg of test compound is dissolved in 1.25 ml dimethylsulfoxide. Then 1.25 ml water are added. 0.5 ml of this sample solution are mixed with 0.5 ml heparinized and 37° C. warm plasma (wistar rat plasma or human plasma). A first sample (10 μl) is immediately taken for HPLC analysis. In the period up to 4 h after the start of incubation further 10 μl aliquots are taken after 30, 60, 90, 120 and 240 minutes and the amount of the test compound is determined.
Agilent 1100 with DAD (G1315A), binary pump (G1312A), autosampler (G1329A), column oven (G1316A), thermostat (G1330B); column: Kromasil 100 C18, 250 mm×4 mm, 5 μm; column temperature: 45° C.; eluent A: water+5 ml of perchloric acid/liter, eluent B: acetonitrile.

[7] = test system: HeLa human cervical tumor cells; assay: Proliferation assay, HeLa cells (crystal violet); format: cell-based; details: HeLa, comparison table with comparative examples, read-out: Inhibition of cell proli-feration, cell line: HeLa, IC50
Experimental: as §1

[8] = molecular target: T1, human kinase Mps-1 (Homo sapiens, UniProt P33981); assay: Mps-1 kinase assay (TR-FRET) with 10 μM ATP; format: biochemical; details: Mps-1 Inhibition, IC50 (Assay with 10 μM ATP), comparison table with comparative examples
T1 construct: N-terminally GST-tagged human full length recombinant Mps-1 kinase; GST (N); purchased Invitrogen, Karslruhe, Germany PV4071
T1 sequence (P33981 1-857): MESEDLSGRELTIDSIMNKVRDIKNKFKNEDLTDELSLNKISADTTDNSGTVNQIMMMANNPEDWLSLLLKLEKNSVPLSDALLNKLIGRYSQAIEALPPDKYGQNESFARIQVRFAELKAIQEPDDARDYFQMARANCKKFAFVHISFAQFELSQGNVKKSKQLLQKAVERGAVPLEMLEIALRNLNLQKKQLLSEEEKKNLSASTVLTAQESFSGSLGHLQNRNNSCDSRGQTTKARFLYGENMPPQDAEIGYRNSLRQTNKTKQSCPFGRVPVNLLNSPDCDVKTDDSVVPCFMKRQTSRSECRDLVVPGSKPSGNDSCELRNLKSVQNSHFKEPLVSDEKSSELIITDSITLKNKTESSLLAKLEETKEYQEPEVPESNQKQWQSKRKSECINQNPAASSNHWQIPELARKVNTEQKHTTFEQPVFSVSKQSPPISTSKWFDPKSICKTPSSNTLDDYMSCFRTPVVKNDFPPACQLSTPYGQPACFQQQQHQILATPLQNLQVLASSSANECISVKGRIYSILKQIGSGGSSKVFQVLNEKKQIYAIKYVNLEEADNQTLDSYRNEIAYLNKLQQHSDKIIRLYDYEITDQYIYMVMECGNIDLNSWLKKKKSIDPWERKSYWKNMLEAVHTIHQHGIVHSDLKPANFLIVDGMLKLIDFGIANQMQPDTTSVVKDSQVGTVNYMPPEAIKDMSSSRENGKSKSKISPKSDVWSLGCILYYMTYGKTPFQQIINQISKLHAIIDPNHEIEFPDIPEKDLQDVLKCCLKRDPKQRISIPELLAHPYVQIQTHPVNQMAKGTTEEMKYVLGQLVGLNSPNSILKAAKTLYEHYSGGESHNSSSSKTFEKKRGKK

[9] = comparison table with comparative examples

SMILES	Rat liver microsomes; Fmax [%] [2, 9] [%]	Dog liver microsomes; Fmax [%] [4, 9] [%]	also measured
COc1cc(C(=O)N2CC(F)C2)ccc1Nc1nc2ccc(-c3ccc(NC(=O)[C@H](C)c4ccc(F)cc4)cc3)cn2n1 [Compound A3, (2R)-N-{4-[2-({4-[(3-fluoroazetidin-1-yl)carbonyl]-2-methoxyphenyl}amino)-[1,2,4]triazolo[1,5-α]pyridin-6-yl]phenyl}-2-(4-fluorophenyl)propanamide]	83	86	IC50 [1]: < 10000 nM; Rat liver microsomes; Fmax [%] ([2]; rat liver microsomes, 1 μM): 83%; Human liver microsomes; Fmax [%] ([3]; human liver microsomes, 1 μM): >95%; calculated maximal oral bioavailability (Fmax) at 1 μM ([3]; po, pH 7.4, determined by means of human liver microsomes, read-out: maximum oral bioavailability (Fmax) in human): > 60%; Dog liver microsomes; Fmax [%] ([4]; dog liver microsomes, 1 μM): 86%
CNCCOC(=O)N(c1nc2ccc(-c3ccc(NC(=O)[C@H](C)c4ccc(F)cc4)cc3)cn2n1)c1ccc(S(C)(=O)=O)cc1OC.Cl [Example 7.1, 2-(methylamino)ethyl [6-(4-{[(2R)-2-(4-fluorophenyl)propanoyl]amino}phenyl)[1,2,4]triazolo[1,5-α]pyridin-2-yl][2-methoxy-4-(methylsulfonyl)phenyl]carbamate hydrochloride]			% Test Compound after 24 h [F(t = 24 h) × 100/F(t = 0 h)] [5]: 48%; % Test Compound after 4 h [F(t = 24 h) × 100/F(t = 0 h)] [6]: 80%
N#Cc1c(F)cccc1Nc1nc2ccc(-c3ccc(NC(=O)Cc4ccc(F)cc4)cc3)cn2n1 [reference compound]		15	
COc1ccccc1Nc1nc2ccc(-c3ccc(NC(=O)Cc4ccccc4)cc3)cn2n1 [reference compound]	40		
N#Cc1ccccc1Nc1nc2ccc(-c3ccc(NC(=O)Cc4ccc(F)cc4)cc3)cn2n1 [reference compound]	40		
COC(C(=O)Nc1ccc(-c2ccc3nc(Nc4ccccc4C#N)nn3c2)cc1)c1ccccc1 (stereo not shown) [reference compound]	19		
N#Cc1ccccc1Nc1nc2ccc(-c3ccc(NC(=O)C(F)(F)c4ccccc4)cc3)cn2n1 [reference compound]	27		
N#Cc1ccccc1Nc1nc2ccc(-c3ccc(NC(=O)C(F)c4ccccc4)cc3)cn2n1 (stereo not shown) [reference compound]	26		
COc1cc(C(=O)N2CCOCC2)ccc1Nc1nc2ccc(-c3ccc(NC(=O)Cc4ccc(F)cc4)cc3)cn2n1 [reference compound]	48		
CCOc1cc(S(C)(=O)=O)ccc1Nc1nc2ccc(-c3ccc(C(=O)NCc4ccc(F)cc4)c(C)c3)cn2n1 [reference compound]		12	
COc1cc(C(=O)NCC(F)(F)F)ccc1Nc1nc2ccc(-c3ccc(NC(=O)Cc4ccc(F)cc4)cc3)cn2n1 [reference compound]		40	
COc1cc(N2CCOC2=O)ccc1Nc1nc2ccc(-c3ccc(NC(=O)Cc4ccc(F)cc4)cc3)cn2n1 [reference compound]		17	
COc1cc(S(C)(=O)=O)ccc1Nc1nc2ccc(-c3ccc(NC(=O)Cc4ccc(F)cc4)cc3)cn2n1 [reference compound]		10	
CS(=O)(=O)c1ccc(Nc2nc3ccc(-c4ccc(NC(=O)Cc5ccc(F)cc5)cc4)cn3n2)c(OCC(F)(F)F)c1 [reference compound]		25	
N#Cc1ccccc1Nc1nc2cnc(-c3ccc(NC(=O)Cc4ccc(F)cc4)cc3)cn2n1 [reference compound]			IC50 [7]: 1500 nM
N#Cc1ccccc1Nc1nc2ccc(-c3ccc(NC(=O)C4(c5ccccc5)CC4)cc3)cn2n1 [reference compound]			IC50 [7]: 1400 nM; IC50 [8]: 11 nM
NC(C(=O)Nc1ccc(-c2ccc3nc(Nc4ccccc4C(F)(F)F)nn3c2)cc1)c1ccccc1 (stereo not shown) [reference compound]			IC50 [8]: 13 nM

— US9586958B2, “Prodrug derivatives of substituted triazolopyridines” (BAYER PHARMA AKTIENGESELLSCHAFT, priority 2013, dated 2017)
